Reference: paper PMC12587574, “Mass balance, pharmacokinetics, metabolism, and excretion of radiolabeled acoziborole, a potential novel treatment for human African trypanosomiasis, following single microtracer oral dose to humans” (Antimicrobial Agents and Chemotherapy, 2025)

Assay: Safety and tolerability assessment, phase I mass balance study
Assay type: in vivo, human
Procedure: Safety was assessed by adverse event (AE) reports and at specific times during the physical examination, vital signs, 12-lead ECGs, and laboratory evaluations (see Supplementary Information section 2). AEs were all recorded from the time participants signed the consent form until the follow-up call, 5–10 days after final study discharge, and were evaluated for type, severity, frequency of AEs, and relationship to the IP.

CC1(C)OB(O)c2cc(NC(=O)c3ccc(F)cc3C(F)(F)F)ccc21 [acoziborole]
overall tolerability (960 mg single oral dose, N = 6): well-tolerated overall | Balanitis candida, participants (Day 1, N = 6): 0 (0.0) 0 (0.0) n (%) | Blood glucose increased, participants (Day 1, N = 6): 0 (0.0) 0 (0.0) n (%) | Gastrointestinal disorders (system organ class), events (Day 1, N = 6): 0 | Gastrointestinal disorders (system organ class), participants (Day 1, N = 6): 0 (0.0) n (%) | Headache, events (Day 1, N = 6): 2 | Headache, participants (Day 1, N = 6): 2 (33.3) n (%) | Infections and infestation (system organ class), events (Day 1, N = 6): 0 | Infections and infestation (system organ class), participants (Day 1, N = 6): 0 (0.0) n (%) | Injury, poisoning and procedural complications (system organ class), events (Day 1, N = 6): 0 | Injury, poisoning and procedural complications (system organ class), participants (Day 1, N = 6): 0 (0.0) n (%) | Investigations (system organ class), events (Day 1, N = 6): 0 | Investigations (system organ class), participants (Day 1, N = 6): 0 (0.0) n (%) | Myalgia, events (Day 1, N = 6): 0 | Myalgia, participants (Day 1, N = 6): 0 (0.0) n (%) | Nervous system disorders (system organ class), events (Day 1, N = 6): 2 | Nervous system disorders (system organ class), participants (Day 1, N = 6): 2 (33.3) n (%) | Phosphokinase increased, participants (Day 1, N = 6): 0 (0.0) 0 (0.0) n (%) | Rhinitis, participants (Day 1, N = 6): 0 (0.0) 0 (0.0) n (%) | Skin laceration, events (Day 1, N = 6): 0 | Skin laceration, participants (Day 1, N = 6): 0 (0.0) n (%) | Surgical and medical procedures (system organ class), events (Day 1, N = 6): 0 | Surgical and medical procedures (system organ class), participants (Day 1, N = 6): 0 (0.0) n (%) | TEAEs, events (Day 1, N = 6): 2 | TEAEs, participants (Day 1, N = 6): 2 (33.3) n (%) | Tooth repair, events (Day 1, N = 6): 0 | Tooth repair, participants (Day 1, N = 6): 0 (0.0) n (%) | Toothache, events (Day 1, N = 6): 0 | Toothache, participants (Day 1, N = 6): 0 (0.0) n (%) | Balanitis candida, events (Day 2 to Day 15, N = 6): 2 | Balanitis candida, participants (Day 2 to Day 15, N = 6): 1 (16.7) n (%) | Blood glucose increased, events (Day 2 to Day 15, N = 6): 0 | Blood glucose increased, participants (Day 2 to Day 15, N = 6): 0 (0.0) n (%) | Gastrointestinal disorders (system organ class), events (Day 2 to Day 15, N = 6): 1 | Gastrointestinal disorders (system organ class), participants (Day 2 to Day 15, N = 6): 1 (16.7) n (%) | Headache, events (Day 2 to Day 15, N = 6): 1 | Headache, participants (Day 2 to Day 15, N = 6): 1 (16.7) n (%) | Infections and infestation (system organ class), events (Day 2 to Day 15, N = 6): 2 | Infections and infestation (system organ class), participants (Day 2 to Day 15, N = 6): 1 (16.7) n (%) | Injury, poisoning and procedural complications (system organ class), events (Day 2 to Day 15, N = 6): 0 | Injury, poisoning and procedural complications (system organ class), participants (Day 2 to Day 15, N = 6): 0 (0.0) n (%) | Investigations (system organ class), events (Day 2 to Day 15, N = 6): 1 | Investigations (system organ class), participants (Day 2 to Day 15, N = 6): 1 (16.7) n (%) | Myalgia, events (Day 2 to Day 15, N = 6): 0 | Myalgia, participants (Day 2 to Day 15, N = 6): 0 (0.0) n (%) | Nervous system disorders (system organ class), events (Day 2 to Day 15, N = 6): 1 | Nervous system disorders (system organ class), participants (Day 2 to Day 15, N = 6): 1 (16.7) n (%) | Phosphokinase increased, events (Day 2 to Day 15, N = 6): 1 | Phosphokinase increased, participants (Day 2 to Day 15, N = 6): 1 (16.7) n (%) | Rhinitis, events (Day 2 to Day 15, N = 6): 0 | Rhinitis, participants (Day 2 to Day 15, N = 6): 0 (0.0) n (%) | Skin laceration, events (Day 2 to Day 15, N = 6): 0 | Skin laceration, participants (Day 2 to Day 15, N = 6): 0 (0.0) n (%) | Surgical and medical procedures (system organ class), events (Day 2 to Day 15, N = 6): 1 | Surgical and medical procedures (system organ class), participants (Day 2 to Day 15, N = 6): 1 (16.7) n (%) | TEAEs, events (Day 2 to Day 15, N = 6): 6 | TEAEs, participants (Day 2 to Day 15, N = 6): 4 (66.7) n (%) | Tooth repair, events (Day 2 to Day 15, N = 6): 1 | Tooth repair, participants (Day 2 to Day 15, N = 6): 1 (16.7) n (%) | Toothache, events (Day 2 to Day 15, N = 6): 1 | Toothache, participants (Day 2 to Day 15, N = 6): 1 (16.7) n (%) | Balanitis candida, events (Day 16 to end of study, N = 6): 0 | Balanitis candida, participants (Day 16 to end of study, N = 6): 0 (0.0) n (%) | Blood glucose increased, events (Day 16 to end of study, N = 6): 1 | Blood glucose increased, participants (Day 16 to end of study, N = 6): 1 (16.7) n (%) | Gastrointestinal disorders (system organ class), events (Day 16 to end of study, N = 6): 0 | Gastrointestinal disorders (system organ class), participants (Day 16 to end of study, N = 6): 0 (0.0) n (%) | Headache, events (Day 16 to end of study, N = 6): 1 | Headache, participants (Day 16 to end of study, N = 6): 1 (16.7) n (%) | Infections and infestation (system organ class), events (Day 16 to end of study, N = 6): 1 | Infections and infestation (system organ class), participants (Day 16 to end of study, N = 6): 1 (16.7) n (%) | Injury, poisoning and procedural complications (system organ class), events (Day 16 to end of study, N = 6): 1 | Injury, poisoning and procedural complications (system organ class), participants (Day 16 to end of study, N = 6): 1 (16.7) n (%) | Investigations (system organ class), events (Day 16 to end of study, N = 6): 1 | Investigations (system organ class), participants (Day 16 to end of study, N = 6): 1 (16.7) n (%) | Myalgia, events (Day 16 to end of study, N = 6): 1 | Myalgia, participants (Day 16 to end of study, N = 6): 1 (16.7) n (%) | Nervous system disorders (system organ class), events (Day 16 to end of study, N = 6): 1 | Nervous system disorders (system organ class), participants (Day 16 to end of study, N = 6): 1 (16.7) n (%) | Phosphokinase increased, events (Day 16 to end of study, N = 6): 0 | Phosphokinase increased, participants (Day 16 to end of study, N = 6): 0 (0.0) n (%) | Rhinitis, events (Day 16 to end of study, N = 6): 1 | Rhinitis, participants (Day 16 to end of study, N = 6): 1 (16.7) n (%) | Skin laceration, events (Day 16 to end of study, N = 6): 1 | Skin laceration, participants (Day 16 to end of study, N = 6): 1 (16.7) n (%) | Surgical and medical procedures (system organ class), events (Day 16 to end of study, N = 6): 0 | Surgical and medical procedures (system organ class), participants (Day 16 to end of study, N = 6): 0 (0.0) n (%) | TEAEs, events (Day 16 to end of study, N = 6): 5 | TEAEs, participants (Day 16 to end of study, N = 6): 3 (50.0) n (%) | Tooth repair, events (Day 16 to end of study, N = 6): 0 | Tooth repair, participants (Day 16 to end of study, N = 6): 0 (0.0) n (%) | Toothache, events (Day 16 to end of study, N = 6): 0 | Toothache, participants (Day 16 to end of study, N = 6): 0 (0.0) n (%) | TEAEs not considered related to the IP (N = 6): 10/13 | changes in ECG parameters, vital signs, or physical examination post-dose (N = 6): no significant changes | deaths, serious AEs, discontinuations due to AE (N = 6): no deaths, serious AEs, or participant discontinuations due to any AE | mean laboratory testing results (blood chemistry, hematology, urinalysis) (N = 6): within acceptable range or considered non-clinically significant | severity of reported TEAEs (N = 6): mild or moderate | Musculoskeletal and connective tissue disorders (system organ class), events (human, in vivo, 1 day): 0 | Musculoskeletal and connective tissue disorders (system organ class), participants (human, in vivo, 1 day): 0 (0.0) n (%) | treatment-emergent AEs, total number (in the six participants): 13
